Converted amounts (≈) assume the structure as drawn.
Columns and labels:
BACE1 [1] = biological target: T1, BACE1 (Homo sapiens, UniProt P56817); experiment: In vitro BACE1 enzyme inhibitory assay (fluorescence); assay type: biochemical; conditions: for IC50: 60 min, 25 °C, pH 4.5, mean ± SD of three experiments, read-out: IC50 (mean ± SD) against BACE1
T1 construct: purchased Invitrogen (Pan Vera, Madison, WI, USA)
Protocol: Enzyme assays for BACE1, TACE, chymotrypsin, trypsin, and elastase were carried out according to previously described methods [27]. Briefly, reaction mixtures containing human recombinant BACE1 (1.0 U/mL), a specific substrate (Rh-[sequence]-Quencher in 50 mM ammonium bicarbonate), and samples dissolved in an assay buffer (50 mM sodium acetate, pH 4.5) were incubated for 60 min at 25 °C in well plates. […] The inhibition ratio was obtained using the following equation:Inhibition (%) = [1 − (S − S0)/(C − C0)] × 100 where C was the fluorescence of control (enzyme, assay buffer, and substrate) after 60 min of incubation, C0 was the fluorescence of control at time 0, S was the fluorescence of tested samples (enzyme, sample solution, and substrate) after 60 min of incubation, and S0 was the fluorescence of the tested samples at time 0.

BACE1 [2] = biological target: T1, BACE1; experiment: BACE1 inhibition kinetics (Dixon and Lineweaver–Burk plots); assay type: biochemical; conditions: for Inhibition Mode: Dixon and Lineweaver–Burk plots; for Ki: Dixon plot
Protocol: The dissociation constant (Ki) was obtained by Dixon plot and maximum reaction velocity (Vmax) and Michaelis–Menten constant (Km) values were determined by Lineweaver–Burk plot using SigmaPlot™ version 12.3 (Systat Software, Inc., San Jose, CA, USA).
The type of inhibition and kinetic analysis was determined using a Michaelis–Menten curve, Dixon plot, and Lineweaver–Burk plot (Figure 2). The three lines of the Dixon plots intersected on the x-axis of the same plot (Figure 2b,e,h). […] This pattern indicated non-competitive inhibitory activity against BACE1, thereby interacting with locations other than the active binding site for these compounds. For noncompetitive inhibition of enzymes, the Ki value of inhibitor is essentially the same numerical value as the IC50 [29].

human recombinant TACE = tested on: T2, human recombinant TACE; experiment: TACE (α-secretase) enzyme inhibitory assay; assay type: biochemical
T2 construct: purchased R&D Systems (Minneapolis, MN, USA)
Protocol: A human recombinant TACE (0.1 ppm in 25 mM Tris buffer), the substrate (APP peptide […] using EDANS/DABCYL), and samples were dissolved in an assay buffer, which were then combined and incubated for 60 min in the dark at 25 °C. The increase in fluorescence intensity produced by substrate hydrolysis was measured by using a microplate reader with excitation and emission wavelengths of 320 and 405 nm, respectively.

trypsin = experiment: Trypsin absorbance inhibition assay; assay type: biochemical
Protocol: (§1) Absorbance assays for trypsin, chymotrypsin, and elastase were estimated using N-benzoyl-ʟ-Arg-pNA, N-benzoyl-ʟ-Tyr-pNA, and N-succinyl-Ala-Ala-Ala-pNA as substrates, respectively. Enzyme, Tris-HCl buffer (0.05 M, in 0.02 M CaCl2, pH 8.2), and tested samples were incubated for 10 min at 25 °C then added to the substrate for 30 min at 37 °C. The absorbance was recorded at 410 nm. The inhibition ratio was obtained using the following equation:Inhibition (%) = {[1 − (A − B)]/control} × 100 where A was the absorbance of control (enzyme, assay buffer, and substrate) after 60 min of incubation, and B was the absorbance of the tested sample (assay buffer and sample solution) after 60 min of incubation.

chymotrypsin = tested on: T3, chymotrypsin; experiment: Chymotrypsin absorbance inhibition assay; assay type: biochemical
T3 construct: purchased Sigma-Aldrich (St. Louis, MO, USA)
Protocol: as §1

elastase = tested on: T4, elastase; experiment: Elastase absorbance inhibition assay; assay type: biochemical
T4 construct: purchased Sigma-Aldrich (St. Louis, MO, USA)
Protocol: as §1

[3] = Physicochemical properties for BBB permeability prediction; conditions: inferred from MW, PSA and clog P
Source text: However, few BACE1 inhibitors have been marketed to treat AD due to the difficulty in developing therapeutic agents that can efficiently cross the BBB and reach appropriate concentrations in the cerebral parenchyma, and, moreover, can do so without side effects. Recently, QSAR study approaches have been used to generate predictive models for BBB permeability. […] Cardamonin has a MW of 270.28, a PSA value calculated as 66.76, and a clog P of 4.54, obtained by determining the partition coefficient between n-octanol and water.

HIV-1 protease = tested on: HIV-1 protease; design: method as in earlier work; conditions: cited from earlier work
[4] = design: method as in PMID 28271112; conditions: calculated; in Å2 (unit assumed); cited from earlier work
[5] = design: method as in PMID 29066742; conditions: 10 mg/kg, 30 weeks; cited from earlier work
Wister rats = conditions: 100 mg/kg, 7 days; cited from earlier work
BBB = conditions: in vitro study; cited from earlier work
[6] = tested on: rat model of global cerebral ischemia-reperfusion; conditions: oral, 10 mg/kg, 7 days; cited from earlier work
[7] = tested on: intracerebroventricular Aβ25–35-injected mice; conditions: oral, 20 mg/kg, 8 days; cited from earlier work
[8] = tested on: APP/PS1 transgenic mouse model; conditions: 40 mg/kg, 3-month period; cited from earlier work

T1 sequence (P56817 46-501): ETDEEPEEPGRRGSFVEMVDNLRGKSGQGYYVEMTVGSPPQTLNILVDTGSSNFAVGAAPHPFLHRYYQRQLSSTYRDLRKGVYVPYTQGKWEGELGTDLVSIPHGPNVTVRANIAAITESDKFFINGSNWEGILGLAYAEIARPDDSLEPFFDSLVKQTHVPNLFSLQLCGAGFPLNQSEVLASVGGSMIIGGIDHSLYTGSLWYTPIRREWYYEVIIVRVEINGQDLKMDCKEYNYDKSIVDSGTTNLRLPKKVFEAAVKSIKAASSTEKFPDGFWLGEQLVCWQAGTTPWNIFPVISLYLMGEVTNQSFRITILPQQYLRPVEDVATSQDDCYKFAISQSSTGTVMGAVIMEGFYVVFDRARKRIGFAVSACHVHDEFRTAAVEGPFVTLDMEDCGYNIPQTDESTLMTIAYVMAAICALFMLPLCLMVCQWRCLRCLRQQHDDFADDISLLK

| Structure (SMILES) | IC50 (BACE1 [1]) | Inhibition Mode (BACE1 [2]) | Ki (BACE1 [2]) | Inhibitory activity (%) TACE (human recombinant TACE; sample 100 μM) | Inhibitory activity (%) Trypsin (trypsin; sample 100 μM) | Inhibitory activity (%) Chymotrypsin (chymotrypsin; sample 100 μM) | Inhibitory activity (%) Elastase (elastase; sample 100 μM) | IC50 HIV-1 protease activity (HIV-1 protease) | Inhibitory activity (%) TACE (human recombinant TACE; sample 10 μM) | Inhibitory activity (%) Trypsin (trypsin; sample 10 μM) | Inhibitory activity (%) Chymotrypsin (chymotrypsin; sample 10 μM) | Inhibitory activity (%) Elastase (elastase; sample 10 μM) | Toxicity or mutagenic effects after oral administration (Wister rats) | also measured |
| --- | --- | --- | --- | --- | --- | --- | --- | --- | --- | --- | --- | --- | --- | --- |
| COc1cc(O)cc(O)c1C(=O)/C=C/c1ccccc1 [Cardamonin, 2′,4′-dihydroxy-6′-methoxychalcone] | 4.35 ± 0.38 µM | Noncompetitive | 5.1 µM | 2.69 ± 1.44% | 3.74 ± 0.53% | 4.23 ± 0.55% | 1.41 ± 0.19% | 31.0 µg/mL (≈ 115 µM) |  |  |  |  |  | BACE1 IC50 relative to resveratrol (BACE1 [1]; comparison of IC50 values): three-fold higher; BACE1 inhibition relative to pinocembrin and pinostrobin (BACE1 [1]; comparison of IC50 values): six-fold more effective; Inhibitory activity (%) TACE (human recombinant TACE; sample 50 μM): 1.38 ± 0.36%; Inhibitory activity (%) Trypsin (trypsin; sample 50 μM): 1.13 ± 0.18%; Inhibitory activity (%) Chymotrypsin (chymotrypsin; sample 50 μM): 6.20 ± 0.41%; Inhibitory activity (%) Elastase (elastase; sample 50 μM): 2.29 ± 0.41%; Predicted BBB crossing [3]: predicted to cross the BBB; polar surface area (PSA) [4]: 66.76; Toxicity after chronic oral administration [5]: did not elicit any apparent toxicity |
| COc1cc(O)c2c(c1)OC(c1ccccc1)CC2=O (centres unmarked) [Pinostrobin, 5-hydroxy-7methoxyflavanone] | 28.4 ± 1.96 µM | Noncompetitive | 30.9 µM | 9.19 ± 1.20% | 1.52 ± 0.05% | 5.41 ± 0.49% | 2.63 ± 0.37% | > 100 µg/mL | 8.53 ± 1.05% | 3.19 ± 0.16% | 3.29 ± 0.25% | 5.21 ± 0.41% | did not induce any toxicity or mutagenic effects |  |
| O=C1CC(c2ccccc2)Oc2cc(O)cc(O)c21 (centres unmarked) [Pinocembrin, 5,7-dihydroxyflavanone] | 27 ± 2.12 µM | Noncompetitive | 29.3 µM | 6.95 ± 1.52% | 4.96 ± 0.27% | 8.61 ± 1.09% | 2.56 ± 0.08% | > 100 µg/mL | 5.15 ± 0.98% | 4.35 ± 0.26% | 7.18 ± 1.87% | 3.24 ± 0.19% | did not induce any toxicity or mutagenic effects | BBB crossing in vitro (BBB): could cross the BBB by passive transport partly through P-glycoprotein; Effect on hippocampal inflammation, oxidative stress and apoptosis [6]: suppressed hippocampal inflammation, oxidative stress, and apoptosis; Effect on cognitive impairment [7]: significantly improved cognitive impairment; Effect on cognitive deficits and neurovascular unit [8]: attenuated cognitive deficits and protected the neurovascular unit |

From paper PMC6471523, “Biological Evaluation and Docking Analysis of Potent BACE1 Inhibitors from Boesenbergia rotunda” (Nutrients, 2019)
